Here are results for one compound from patent US20160166572A1, “BENEFICIAL EFFECTS OF Lp-PLA2 INHIBITORS IN TREATMENT OF DIABETIC RETINOPATHY AND AGE-RELATED MACULAR DEGENERATION” (Rowan University, priority 2014, published 2016).

Assay [1] relates to occludin. Description: Occludin gene expression in cerebral cortex (RT-PCR, beta-actin reference), DMHC pigs. It counts as in vivo, pig. The note with it: Darapladib 10 mg/kg/d orally, 24 weeks, rank among treatment groups, FIG. 8B. The protocol: Briefly, after induction of diabetes by a single injection of Streptozotocin, animals were fed a high cholesterol diet. After a month of DMHC induction and acclimation, animals were randomly segregated to untreated DMHC and Darapladib-treated DMHC groups. Darapladib-treated pigs received 10 mg/kg/d of Darapladib orally. Three of the pigs were spared from DMHC induction and served as age-matched, non-DMHC normal controls. Twenty four weeks after acclimation, animals were euthanized and their brains and eyes were immediately removed. Brains were divided anteroposteriorly into anterior, middle and posterior regions. […]
Relative quantification of claudin5 and occludin gene expression was carried out using the reporter dye SYBR green and Applied Biosystems 7500 real time polymerase chain reaction (RT-PCR) system. […] Relative quantification of the claudin5 and occludin gene expression was conducted using beta actin (β-actin), a house keeping gene, as a standard. The amplification profiles of all samples were analyzed using Applied Biosystems software. […]
Changes in claudin 5 and occludin gene expression in response to DMHC and Darapladib treatment were assessed in the middle brain region only of the pig cerebral cortex by real-time polymerase chain reaction (RT-PCR) using beta-actin as a reference (FIG. 8).

The test system of assay [2] is GFAP. Description: GFAP expression in retina (immunofluorescence), DMHC pigs. It counts as in vivo, pig. Conditions: Darapladib 10 mg/kg/d orally, 24 weeks. The protocol:
Briefly, after induction of diabetes by a single injection of Streptozotocin, animals were fed a high cholesterol diet. After a month of DMHC induction and acclimation, animals were randomly segregated to untreated DMHC and Darapladib-treated DMHC groups. Darapladib-treated pigs received 10 mg/kg/d of Darapladib orally. Three of the pigs were spared from DMHC induction and served as age-matched, non-DMHC normal controls. Twenty four weeks after acclimation, animals were euthanized and their brains and eyes were immediately removed. Brains were divided anteroposteriorly into anterior, middle and posterior regions. For each of these brain regions, 2-3 tissue blocks were generated for routine tissue fixation (10% formalin) or freezing and histological processing. […] Cells positive for GFAP were counted throughout the whole thickness of the retina, and then quantified using ImagePro7.0 (Media Cybernetics, Silver Spring, Md.). Briefly, a 300×300 pixel square area was randomly made in each retinal section in three contiguous locations across the retina and the positive GFAP area was determined per total area using a fixed threshold. […] Cell number was determined by counting the DAPI-positive nuclei in a fixed area. […] GFAP-positive fluorescence extended from inner to outer limiting membranes in the DMHC group, confirming that GFAP was predominantly being expressed by Müller cells (FIGS. 5A-E). […]

As to `CCN(CC)CCN(Cc1ccc(-c2ccc(C(F)(F)F)cc2)cc1)C(=O)Cn1c(SCc2ccc(F)cc2)nc(=O)c2c1CCC2` [Darapladib], the “occludin gene expression, middle brain region of cerebral cortex” value in assay [1] is “highest claudin5 and occludin levels”. Further, the “intensity of GFAP immunostaining (GFAP expression) in retina” value in assay [2] (FIG. 5D) is “dramatically lower GFAP expression in the retinas of DMHC pigs, it was still significantly higher than in controls”. For the same compound, the “GFAP immunoreactivity, distribution in retina” value in assay [2] (compared to DMHC only, FIGS. 5A-C) was “reduced and confined to the GCL”.
